Laboratory results as given in EP3964511A1, “BIOORTHOGONAL CHOLESTEROL PROBE AND USES THEREOF” (Universidad del País Vasco/Euskal Herriko Unibertsitatea, priority 2020, dated 2022).

Tests used:
[1] = In vitro laurdan generalized polarization (GP) in LUVs; type: physicochemical; conditions: POPC LUVs with 10% sterol (labeled adduct 90%:8%:2%), compared with chol
Description: Large unilamellar vesicles (LUV) composed of POPC:chol (90%:10%), POPC:chol-N3 (90%:10%) or POPC/chol-N3/chol-N3-AF 647-DBCO (90%:8%:2%) were prepared following the extrusion method described by Cebecauer M. et al. (Membrane Lipid Nanodomains. Chem Rev, 2018). Laurdan was added in the organic phase before solvent evaporation. Laurdan labeled liposomes at a concentration of 30 µM were kept under continuous stirring, and the determination of GP profiles at different temperatures was performed. All fluorescence measurements were made using an SLM Aminco series 2 (Spectronic Instruments, Rochester, NY) spectrofluorimeter as previously described (Sheng R. et al. Nat Commun 3, 1249, 2012). To quantify changes in the Laurdan emission spectrum, generalized polarization (GP) values were calculated as follow: GP = (IB-IR)/(IB+IR), where IB (at 440 nm) and IR (at 490 nm) correspond to the intensities at the blue and red edges of the emission maxima, respectively (Bernardino de la Serna J et al., J Biol Chem 279, 40715-40722, 2004 and Sezgin E et al., Nat Rev Mol Cell Biol 18, 361-374, 2017).

[2] = system: HeLa cells; experiment: Competition assay of cellular uptake against natural chol; type: cell-based, Human; conditions: probe fixed at 5 µM, chol 0-1 mM, 1 h co-incubation; result stated at 500 µM chol
Description: A competition assay was designed to test chol-N3 and fluorescently pre-labeled chol-N3 uptake by cells. HeLa cells were seeded onto coverslips in DMEM supplemented with 10% FBS, and co-incubated with a fixed concentration of chol-N3 (5 µM) or with chol-N3 (5 µM) labeled with 10 µM AF 488-DBCO and an increasing concentration of natural chol (ranging from 0 to 1 mM) added externally to the cells. After 1h co-incubation of cells with the mixture, cells were stained in vivo with 25 µM AF 488-DBCO for 60 min, counterstained with DAPI, fixed, and imaged using a ZEISS apotome. Alternaltively, HeLa cells were treated with 5 µM Bodipy-chol in DMEM supplemented with 10% FBS and co-incubated with increasing concentration of natural chol (0-1mM) for 1h. Cells were fixed, and counterstained with DAPI.
Human cervix adenocarcinoma HeLa cells and human bone marrow neuroblast SH-SY5Y cells were obtained from ATCC. HeLa cells were maintained in DMEM (Dulbecco's modified Eagle's medium) supplemented with 10% FBS, 2 mM Glutamax, 100 units/ml penicillin, and 100 µg/ml streptomycin (Life Technologies) at 37 °C with 5% CO2. SH-SY5Y cells were maintained in DMEM/F12 (F12 and Dulbecco's modified Eagle's medium) supplemented with 10% FBS and 1% penicillin and streptomycin. (Life Technologies) at 37°C with 5% CO2.

CC(CCCN=[N+]=[N-])C1CCC2C3CC=C4CC(O)CCC4(C)C3CCC12C (centres unmarked) [chol-N3, 17-(5-azidopentan-2-yl)-10,13-dimethyl-2,3,4,7,8,9,10,11,12,13,14,15,16,17-tetradecahydro-1H-cyclopenta[a]phenanthren-3-ol]
membrane order (laurdan generalized polarization, GP) versus temperature [1]: same membrane order behavior irrespective of the chol analog used
uptake in the presence of increasing extracellular chol [2]: virtually abolished
